From patent US20040105875A1, “Composition containing a secondary or tertiary carbonyl amine, method of use thereof, compounds” (L'OREAL, priority 2002, published 2004)

Assays:
fibroblasts = test: Cytotoxicity check in the dermal equivalent test; format: cell-based, human
[1] = test system: calcium flux (release of Ca2+) in SK-N-SH nerve cells; test: Inhibition of calcium flux (IC50Ca2+) on nerve cells SK-N-SH; format: cell-based; settings: Homo sapiens, 50% inhibitory concentration for the release of Ca2+
From the text: (§1) In order for a substance to be recognized as a calcium-channel inhibitor, it must be able to reduce the intracellular calcium concentration or reduce the binding of calcium to intracellular proteins such as, for example, calmodulin, as is described especially by Galizzi, J. P. et al., J. Biol. Chem. 1987, 262 p. 6947; by Y. Okamiya et al., Eur. J. Pharmacol. 1991, 205, p. 49; by J. A. Wagner et al., J. Neurosci. 1988, 8, p. 3354; by H. R. Lee et al., Life Sci. 1984, 35, p. 721; by Schoemaker H. and Lauger S. Eur. J. Pharmacol. 1985, 111, p. 273 or I. J. Reynolds et al., J. Pharmacol. Exp. Ther. 1986, 237, p. 731.
(§2) According to the protocol indicated in these documents, the Assignee determined the IC50Ca2+ of inhibition of calcium flux for compounds (Ia), (IIa) to (IId), (IIIa) and (IIIb), in comparison with verapamil. IC50Ca2+ represents the 50% inhibitory concentration for the release of Ca^2+.

[2] = test system: normal human fibroblasts inserted into a fibrillar collagen gel (dermal equivalent); test: Contraction of dermal equivalents (fibroblasts in fibrillar collagen gel), dermo-decontracting effect; format: cell-based
From the text: This model thus makes it possible to evaluate the relaxing potential of compounds by measuring the delay in contraction of the treated dermal equivalents relative to the control dermal equivalents prepared under the same conditions. Verapamil is used as reference molecule.
Dermal fibroblasts are isolated from human skin explants and cultured in MEM medium+additives (10% foetal calf serum, 1% glutamine, 1% non-essential amino acids, 1% sodium pyruvate, 1% Fungizone and 1% penicillin/streptomycin). The collagen used is obtained from a commercial solution. It is extracted from rat tails and stored in acidic medium at +4° C. It is dialysed beforehand against successive baths of acetic acid of decreasing concentration.
The mixture is homogenized cautiously, so as to obtain a distribution of the cells in the collagen matrix that is as uniform as possible. It is then distributed in each well of a 12-well culture dish at a rate of 2 ml/well. The final cell concentration is 3×10^4 cells/dermal equivalent with a final collagen concentration of 1 mg/ml.
The culture dishes are incubated at 37° C./5% CO2 so as to obtain polymerization and gelation of the collagen. The dermal equivalents thus treated adhere to the dishes and the cells are subjected to mechanical stresses that potentiate their contractile properties. The cells thus cultured in 3D end up under conditions close to those of the dermis. After culturing for three days under these “attached” conditions, the dermal equivalents are detached from their support by gentle agitation. […]
To do this, a digital image is acquired for each treated or untreated dermal equivalent using a camera (CCD camera—Iris Sony DXC -107P) and on each of them, the small (D1) and large (D2) diameters of the dermal equivalent are measured by computer. The surface area is calculated according to the formula for calculating an ellipse: S=(D1×D2×π)/4. […] The percentage of contraction is calculated according to the formula below, in which Si represents the surface area of the dermal equivalent at Ti: […]

[3] = test system: calcium flux (release of Ca2+) in HDFa cells obtained from skin fibroblasts; test: Inhibition of calcium flux (IC50Ca2+) on cells obtained from skin fibroblasts HDFa; format: cell-based; settings: 50% inhibitory concentration for the release of Ca2+
From the text: as §1, §2

IC50 [1] [µM]	Compound	IC50 [3] [µM]	other results
36	CN(CCC(=O)c1ccccc1)CCC(=O)c1ccccc1.Cl [Compound (Ia)]		cytotoxicity as cause of the decontracting effect (fibroblasts): did not result from any cytotoxicity; difference in the degree of contraction compared with control dermal equivalents ([2]; tested at 1 μm, after 4 days of contact with the fibroblasts): 25%
41	COc1cc(CNCCC(=O)c2ccccc2)ccc1O [Compound (IIIa)]	30	
36	CCCCCCCNCCC(=O)c1ccccc1 [Compound (IIc)]	46	
3	CCCCCC(O)(CCCCC)CCN(CC)CCC(=O)c1ccccc1 [Compound (IId), 3-[ethyl(3-hydroxy-3-pentyloctyl)amino]-1-phenylpropan-1-one]	4	
29	CCCCCC(=O)CCN(CC)CCC(=O)c1ccccc1 [Compound (IIa)]	41	
14	COc1ccc(CCN(C)CCC(=O)c2ccccc2)cc1OC [Compound (IIIb)]	6	
	COc1ccc(CCN(C)CCCC(C#N)(c2ccc(OC)c(OC)c2)C(C)C)cc1OC (stereo not drawn) [verapamil]		difference in the degree of contraction compared with control dermal equivalents ([2]; tested at 10 μM, same conditions (4 days of contact)): 32%
26	CCCCCCCN(C)CCC(=O)c1ccccc1 [Compound (IIb)]	31	
30	CCN(CCCc1ccccc1)CCCc1ccccc1 [alverine, reference compound]		activity in the dermal equivalent contraction test ([2]; tested under the same conditions): no activity
